The source made the active and inactive calls.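 Rule for the calls: active = fitted curve reaches 40% activation below the top valid tested dose, in every test run; inconclusive = test runs disagree on the call; inactive = the rest, including effects opposite to the expected direction.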
Assay: E-selectin inducers in HUVECs, dose response, imaging, HUVEC, cherry-picked samples (AID 977605);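 note: signal is the share of imaged cells scored positive for E-selectin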
Conditions: HUVEC E-selectin immunostaining, at 19.5 µM (top of the series)

Structure (SMILES) | activation
Cc1ccc(OC(F)F)c(N2C(=O)C3C4CCC(O4)C3C2=O)c1 (stereo unspecified) | -0.065% (inactive)

Same assay, conditions: HUVEC E-selectin immunostaining, at 19.5 µM (top of the series), percent of TNF-alpha response over vehicle

Structure (SMILES) | activation
CN(CC(=O)Nc1ccc(Cl)c(Cl)c1)C1CCCCC1 | -0.064% (inactive)
Nc1nnc(SCc2nnc(-c3ccccc3)o2)s1 | 0.69% (inactive)
C[C@@H]1CN([C@@H](C)CO)C(=O)Cc2cc(NC(=O)Cn3cnnn3)ccc2O[C@H]1CN(C)Cc1ccc(Oc2ccccc2)cc1 | 0.416% (inactive)
COc1ccc(C(=O)Nc2ccc3c(c2)OCCO3)cc1[N+](=O)[O-] | 0.055% (inactive)
C[C@@H]1CN([C@@H](C)CO)C(=O)c2cccc(NS(=O)(=O)c3ccc(Cl)cc3)c2O[C@H]1CN(C)C(=O)Nc1ccc2c(c1)OCO2 | -0.05% (inactive)
Cc1ccccc1CCN1CCCC(CN(C)C(=O)c2ccc3ncccc3c2)C1 (stereo unspecified) | 36.6% (inactive)
COc1ccc(S(=O)(=O)Nc2ccc3c(c2)CC(=O)N([C@H](C)CO)C[C@@H](C)[C@@H](CN(C)C(=O)NC2CCCCC2)O3)cc1 | 0.114% (inactive)
C[C@H]1CN([C@@H](C)CO)C(=O)Cc2cc(NS(=O)(=O)c3ccc(F)cc3)ccc2O[C@H]1CN(C)S(=O)(=O)c1ccc(Cl)cc1 | -0.018% (inactive)
Cc1cccc(NS(=O)(=O)c2ccc(S(=O)(=O)N3CCCC3)cc2)c1 | 1.83% (inactive)
C[C@@H]1CN([C@H](C)CO)C(=O)c2cccc(NC(=O)Nc3ccc4c(c3)OCO4)c2O[C@@H]1CN(C)C(=O)Nc1ccc(C(F)(F)F)cc1 | 0.256% (inactive)
C[C@H](CO)N1C[C@H](C)[C@H](CN(C)C(=O)NC2CCCCC2)Oc2ccc(NS(=O)(=O)c3ccccc3)cc2C1=O | -0.156% (inactive)
CCC(=O)N(C)C[C@H]1Oc2cc(C3=CCCC3)ccc2S(=O)(=O)N([C@@H](C)CO)C[C@@H]1C | -0.074% (inactive)
CCOc1ccccc1NC(=O)N1CCC(NC(=O)C2CCCCC2)CC1 | -0.152% (inactive)
C[C@H]1CN([C@@H](C)CO)C(=O)Cc2cc(NS(=O)(=O)c3ccccc3)ccc2O[C@H]1CN(C)Cc1ccc(C(F)(F)F)cc1 | 10.6% (inactive)
CCOc1cc(N2CCOCC2)c(OCC)cc1NC(=O)c1ccc(S(=O)(=O)N2CC(C)OC(C)C2)cc1 (stereo unspecified) | -0.215% (inactive)
CN(Cc1ccsc1)C(=O)CCc1nnc(CCCc2ccccc2)o1 | 1.14% (inactive)
COC(=O)CCCn1cc(CN2CC(N3CCN(Cc4ccccc4F)CC3)CS2(=O)=O)nn1 (stereo unspecified) | -0.246% (inactive)
O=C(COc1ccc(Cl)cc1)NCCCNC(=O)c1cnccn1 | 0.135% (inactive)
C[C@H](CO)N1C[C@H](C)[C@@H](CN(C)S(C)(=O)=O)Oc2ccc(NS(=O)(=O)c3cccs3)cc2C1=O | -0.072% (inactive)
CCCNC(=O)N(C)C[C@H]1Oc2ncc(C3=CCCC3)cc2C(=O)N([C@H](C)CO)C[C@@H]1C | -0.163% (inactive)

Structure (SMILES) | activation
C[C@@H]1CN([C@H](C)CO)C(=O)c2cccc(NC(=O)Nc3ccc(C(F)(F)F)cc3)c2O[C@@H]1CN(C)S(=O)(=O)c1cccs1 | -0.223% (inactive)
Cc1noc(C)c1NC(=O)Nc1ccc2c(c1)CC(=O)N([C@@H](C)CO)C[C@H](C)[C@H](CN(C)Cc1ccc(Oc3ccccc3)cc1)O2 | 0.075% (inactive)
C[C@H]1CN([C@@H](C)CO)C(=O)c2cc(NC(=O)C3CCCCC3)ccc2O[C@H]1CN(C)Cc1ccc(C(=O)Nc2ccccc2N)cc1 | 4.92% (inactive)
C[C@@H]1CN([C@@H](C)CO)C(=O)Cc2cc(NC(=O)c3ccncc3)ccc2O[C@@H]1CN(C)S(C)(=O)=O | 4.61% (inactive)
C[C@H]1CN([C@@H](C)CO)C(=O)Cc2cc(NC(=O)c3ccncc3)ccc2O[C@H]1CN(C)C(=O)Nc1ccc(C(F)(F)F)cc1 | 0.212% (inactive)
O=C(Cc1ccc(-n2c(=O)c3sccc3n(Cc3ccc(F)cc3)c2=O)cc1)NCc1ccco1 | 0.008% (inactive)
COC(=O)C[C@@H]1CC[C@@H]2[C@H](COc3ccc(NC(=O)Nc4cccc(F)c4)cc3C(=O)N2C)O1 | -0.161% (inactive)
COc1ccc(S(=O)(=O)N(C)C[C@@H]2Oc3c(NS(=O)(=O)c4ccc(F)cc4)cccc3C(=O)N([C@H](C)CO)C[C@@H]2C)cc1 | -0.15% (inactive)
C[C@@H]1CN([C@H](C)CO)C(=O)c2cc(NC(=O)Nc3ccc(F)cc3)ccc2O[C@H]1CN(C)S(=O)(=O)c1cccs1 | 0.059% (inactive)
CC(C)CCNC(=O)[C@H](Cc1ccccc1)N1Cc2ccccc2C1=O | 0.131% (inactive)
CC(C)CC#Cc1ccc2c(c1)O[C@H](CN(C)C(=O)c1ccccc1)[C@H](C)CN([C@@H](C)CO)S2(=O)=O | -0.183% (inactive)
C[C@@H]1CN([C@@H](C)CO)C(=O)c2cc(NC(=O)Cc3cn(C)c4ccccc34)ccc2O[C@H]1CN(C)Cc1ccc2c(c1)OCO2 | -0.066% (inactive)
C[C@@H]1CN([C@H](C)CO)C(=O)Cc2cc(NC(=O)C3CC3)ccc2O[C@@H]1CN(C)Cc1ccc2c(c1)OCO2 | -0.006% (inactive)
CCCCOCC1CN(CCCC)S(=O)(=O)c2c(Oc3ccc(C(C)C)cc3)cccc2O1 (stereo unspecified) | -0.279% (inactive)
O=C(COC(=O)CCC(=O)c1ccc(F)cc1)Nc1cccc(S(=O)(=O)N2CCCC2)c1 | 2.61% (inactive)
C[C@H](CO)N1C[C@H](C)[C@H](CN(C)S(=O)(=O)c2ccccc2)Oc2c(NC(=O)Nc3ccccc3)cccc2C1=O | -0.014% (inactive)
CCOc1cnc(C(=O)NNC(=O)c2ccccc2Br)o1 | 0.602% (inactive)
O=C(c1cncc(Br)c1)N1CCN(S(=O)(=O)c2ccccc2C(F)(F)F)CC1 | -0.01% (inactive)
COc1ccc(C2c3[nH]c4ccccc4c3C[C@H]3C(=O)N(CC(C)C)CC(=O)N23)c(OC)c1 (stereo partly specified) | 0.036% (inactive)
C[C@@H]1CN([C@H](C)CO)C(=O)c2cccc(NC(=O)c3ccncc3)c2O[C@H]1CN(C)S(=O)(=O)c1ccccc1 | 2.7% (inactive)

Structure (SMILES) | activation
C[C@H](CO)N1C[C@H](C)[C@@H](CN(C)S(C)(=O)=O)Oc2ccc(NC(=O)CCCCCC(=O)Nc3ccccc3N)cc2CC1=O | 0.149% (inactive)
Cc1ccc(S(=O)(=O)Nc2cc(S(=O)(=O)N3CCCCC3)ccc2N2CCOCC2)cc1 | 0.047% (inactive)
Cc1cccc(CC(=O)Nc2sc(C(C)C)cc2C(=O)N2CCOCC2)c1 | 0.007% (inactive)
Cc1noc(C)c1NC(=O)Nc1cccc2c1O[C@@H](CN(C)Cc1ccc(C(F)(F)F)cc1)[C@H](C)CN([C@@H](C)CO)C2=O | 0.145% (inactive)
Cc1ccsc1CN(C)Cc1nc(C2CC2)no1 | 1.75% (inactive)
C[C@H]1CN([C@@H](C)CO)C(=O)c2cccc(NC(=O)C3CCOCC3)c2O[C@H]1CN(C)Cc1ccc(Oc2ccccc2)cc1 | 0.01% (inactive)
C[C@@H]1CN([C@@H](C)CO)C(=O)c2cc(NC(=O)Nc3ccccc3)ccc2O[C@@H]1CN(C)C(=O)Nc1ccc(C(F)(F)F)cc1 | 0.807% (inactive)
COc1ccc(-c2nnc3n2CCCCC3)cc1 | 0.032% (inactive)
C[C@@H]1CN([C@H](C)CO)C(=O)c2cc(NS(C)(=O)=O)ccc2O[C@@H]1CN(C)Cc1ccc(C(F)(F)F)cc1 | -0.068% (inactive)
CC(=O)NC(Cc1c[nH]c2ccccc12)C(=O)NCCc1ccccn1 (stereo unspecified) | 0.144% (inactive)
CC1CN(S(=O)(=O)c2ccc(F)cc2)C(C)N1C(=O)N1CCOCC1 (stereo unspecified) | -0.215% (inactive)
COc1ccccc1N(CC(=O)NCCSc1ccccn1)S(=O)(=O)c1ccccc1 | -0.052% (inactive)
CCCCC1C(=O)N(c2ccccc2)N(c2ccc(O)cc2)C1=O (stereo unspecified) | -0.246% (inactive)
CS(=O)(=O)N1CCc2cc(C(=O)NC3CC3)ccc21 | 0.099% (inactive)
CCCC#Cc1ccc2c(c1)O[C@@H](CN(C)CCC)[C@@H](C)CN([C@@H](C)CO)S2(=O)=O | -0.152% (inactive)
Fc1ccc(NC(=S)N2CCN(c3cccc(C(F)(F)F)c3)CC2)cc1 | -0.235% (inactive)
CCOC(=O)C1(Cc2ccccc2C)CCCN(C(=O)c2ccnn2C)C1 (stereo unspecified) | -0.138% (inactive)
CCOC(=O)c1cccc(NC(=O)Nc2ccc3c(c2)C(=O)OC3)c1 | 0.013% (inactive)
Cc1noc(C)c1NC(=O)N(C)C[C@H]1Oc2ccc(NS(=O)(=O)c3c(C)noc3C)cc2C(=O)N([C@H](C)CO)C[C@@H]1C | -0.221% (inactive)
C[C@H]1CN([C@@H](C)CO)C(=O)c2cc(N(C)C)ccc2O[C@H]1CN(C)C(=O)Nc1ccc2c(c1)OCO2 | 2.2% (inactive)

Same assay, conditions: HUVEC E-selectin immunostaining, at 21 µM (top of the series), percent of TNF-alpha response over vehicle

Structure (SMILES) | activation
CC(C)NC(=O)N(C)C[C@H]1Oc2ccc(NC(=O)CCC(F)(F)F)cc2CC(=O)N([C@@H](C)CO)C[C@H]1C | 5.5% (inactive)
COc1ccc(S(=O)(=O)Nc2ccc3c(c2)CC(=O)N([C@@H](C)CO)C[C@H](C)[C@@H](CN(C)C(=O)NC2CCCCC2)O3)cc1 | 0.142% (inactive)
COc1ccc(S(=O)(=O)N(C)C[C@H]2Oc3ccc(NC(=O)Nc4c(C)noc4C)cc3C(=O)N([C@@H](C)CO)C[C@@H]2C)cc1 | 2.96% (inactive)
CC(C)NC(=O)Nc1ccc2c(c1)CC(=O)N([C@H](C)CO)C[C@@H](C)[C@@H](CN(C)Cc1ccc3c(c1)OCO3)O2 | -0.173% (inactive)
C[C@@H]1CN([C@H](C)CO)C(=O)c2cc(NS(C)(=O)=O)ccc2O[C@H]1CN(C)C(=O)Nc1ccc2c(c1)OCO2 | 0.437% (inactive)
C[C@H](CO)N1C[C@H](C)[C@@H](CN(C)C)Oc2c(NC(=O)CCCCCC(=O)Nc3ccccc3N)cccc2C1=O | -0.097% (inactive)
COc1ccc(S(=O)(=O)Nc2ccc3c(c2)C(=O)N([C@@H](C)CO)C[C@H](C)[C@H](CN(C)S(=O)(=O)c2ccc(Cl)cc2)O3)cc1 | 0.145% (inactive)
C[C@@H]1CN([C@@H](C)CO)C(=O)c2cc(NC(=O)CCCCCC(=O)Nc3ccccc3N)ccc2O[C@H]1CN(C)C(=O)Nc1ccc2c(c1)OCO2 | 0.05% (inactive)
C[C@@H]1CN([C@H](C)CO)C(=O)c2cc(NC(=O)c3ccncc3)ccc2O[C@@H]1CN(C)C(=O)Nc1ccc2c(c1)OCO2 | 0.64% (inactive)
COc1ccc(S(=O)(=O)N(C)C[C@@H]2Oc3ccc(NC(=O)CCCN(C)C)cc3C(=O)N([C@@H](C)CO)C[C@@H]2C)cc1 | -0.143% (inactive)

Source: PubChem BioAssay AID977605 (Broad Institute, 2014)
